Measurements: patent US20210395210A1, “INHIBITION OF BACTERIAL CHAPERONIN SYSTEMS” (THE TRUSTEES OF INDIANA UNIVERSITY, priority 2018, published 2021)
Read-outs that look alike come from different tables or passages of the source.

Columns and labels:
[1] = test system: Enterobacter cloacae (ATCC 13047); assay: Bacterial proliferation assay, E. cloacae; format: cell-based
Description: (§1) Bacterial Strains: Enterococcus faecium—(Orla-Jensen) Schleifer and Kilpper-Balz strain NCTC 7171 (ATCC 19434); Drug sensitive Staphylococcus aureus—Rosenbranch strain Seattle 1945 (ATCC 25923); Methicillin resistant S. aureus (MRSA)—Rosenbach strain HPV107 (ATCC BAA-44); Klebsiella Pneumonia—(Schroeter) Trevisan strain NCTC 9633 (ATCC 13883); Acinetobacter baumannii—Bouvet and Grimont strain 2208 (ATCC 19606); Pseudomonas aeruginosa—(Schroeter) Migula strain NCTC 10332 (ATCC 10145); Enterobacter cloacae—E. cloacae, subsp. cloacae (Jordan) Hormaeche and Edwards strain CDC 442-68 (ATCC 13047).
(§2) Growth Media: All bacteria were grown in Brain Heart Infusion (BHI) broth/agar (Becton, Dickinson and Company). All liquid cultures were grown in BHI media supplemented with 25 mg/L Ca^2+ and 12.5 mg/L Mg^2+ to mimic free physiological concentrations of these cations. A 10 mg/mL Ca^2+ stock solution was prepared by dissolving 3.68 g of CaCl2.2H2O in 100 mL of deionized water, and a 10 mg/mL Mg^2+ stock solution was prepared by dissolving 8.36 g of MgCl2.6H2O in 100 mL deionized water. Both stock solutions were filter-sterilized using 0.2 μm pore size cellulose-acetate filters. 2.5 mL of the sterile 10 mg/mL Ca^2+ stock and 1.25 mL of the sterile 10 mg/mL Mg^2+ stock solutions were added per 1 L of autoclaved BHI medium to obtain 25 mg/L Ca^2+ and 12.5 mg/L Mg^2+ ions, respectively.
(§3) General Assay Protocol: Stock bacterial cultures were streaked onto BHI agar plates and grown overnight at 37° C. Fresh aliquots of broth were inoculated with single bacterial colonies and the cultures were grown overnight at 37° C. with shaking (240 rpm) in cation adjusted BHI media. The following morning, the overnight cultures were sub-cultured (1:5 dilution) into fresh aliquots of cation adjusted BHI media and grown at 37° C. for 1-2 hours with shaking. After 2 h, cultures were diluted into fresh media to achieve final OD600 readings of 0.017. Aliquots of these diluted cultures (30 μL) were added to clear, flat-bottom, 384-well polystyrene plates that were stamped with 0.5 μL of test compounds in 20 μL media. […] Plates were sealed with “Breathe Easy” oxygen permeable membranes (Diversified Biotech) and left to incubate at 37° C. without shaking (stagnant assay). OD600 nm readings were taken at either 6-8 h (S. aureus, MRSA, K. pneumonia, E. cloacae, and P. aeruginosa) or 24 h (E. faecium and A. baumannii). A second set of baseline control plates were prepared analogously, but without any bacteria added, to correct for possible compound absorbance and/or precipitation. Plates were then read at 600 nm using a Molecular Devices SpectraMax Plus384 microplate reader. […] Results presented represent the averages of EC50 values obtained from at quadriplicate (duplicate of duplicate) replicates.

in vitro = conditions: human
Protocol: HEK 293 cells were maintained in MEM medium (Corning Cellgro, 10-009 CV) supplemented with 10% FBS (Sigma, F2242). […] Cells at 80% confluence were harvested and diluted in growth medium, then 45 μL of the THLE-3 cells (1,500 cells/well) or HEK 293 cells (1,500 cells/well) were dispensed per well, and plates were sealed with “Breathe Easy” oxygen permeable membranes (Diversified Biotech) and incubated at 37° C., 5% CO2, for 24 h.

[2] = test system: Drug sensitive Staphylococcus aureus (ATCC 25923); assay: Bacterial proliferation assay, drug sensitive S. aureus; format: cell-based
Description: as §1, §2, §3

human HSP60/10 = target: T1, human HSP60/10 (Homo sapiens, UniProt P10809); assay: HSP60/10-mediated dMDH refolding assay; format: biochemical
T1 construct: octa-Histidine tag (TEV-cleavable) (N, cleaved yes); made in house; host or cells: HSP60 in E. coli Rosetta 2 (DE3); HSP10 in Rosetta 2 (DE3) pLysS
Protocol: Reagent preparation: For these assays, four primary reagent stocks were prepared: 1) GroEUES-dMDH or HSP60/10-dMDH binary complex stock; 2) ATP initiation stock; 3) EDTA quench stock; 4) MDH enzymatic assay stock. Denatured MDH (dMDH) was prepared by 2-fold dilution of MDH (5 mg/ml, soluble pig heart MDH from Roche, product #10127248001) with denaturant buffer (7 M guanidine-HCl, 200 mM Tris, pH 7.4, and 50 mM DTT). MDH was completely denatured by incubating at room temperature for 45 min. The binary complex solutions were prepared by slowly adding the dMDH stock to a stirring stock with GroEL (or HSP60) in folding buffer (50 mM Tris-HCl, pH 7.4, 50 mM KCl, 10 mM MgCl2, and 1 mM DTT), followed by addition of GroES (or HSP10). The binary complex stocks were prepared immediately prior to dispensing into the assay plates and had final protein concentrations of 83.3 nM GroEL (Mr 800 kDa) or HSP60 (Mr 400 kDa), 100 nM GroES or HSP10 (Mr 70 kDa), and 20 nM dMDH in folding buffer. For the ATP initiation stock, ATP solid was diluted into folding buffer to a final concentration of 2.5 mM. Quench solution contained 600 mM EDTA (pH 8.0). The MDH enzymatic assay stock consisted of 20 mM sodium mesoxalate and 2.4 mM NADH in reaction buffer (50 mM Tris-HCl, pH 7.4, 50 mM KCl, and 1 mM DTT).
Assay Protocol: First, 30 μL aliquots of the GroEL/ES-dMDH or HSP60/10-dMDH binary complex stocks were dispensed into clear, 384-well polystyrene plates. […] The chaperonin-mediated refolding cycles were initiated by addition of 20 μL of ATP stock (reagent concentrations during refolding cycle: 50 nM GroEL or HSP60, 60 nM GroES or HSP10, 12 nM dMDH, 1 mM ATP, and compounds of 100 μM to 46 nM, 3-fold dilution series). The refolding reactions were incubated at 37° C. […] Next, the assay was quenched by addition of 10 μL of the EDTA to final concentration of 100 mM. […] A340 nm measurements were recorded at 0.5 minutes (start point) and at successive time points until the amount of NADH consumed reached ˜90% (end point, generally between 20-35 minutes). The differences between the start and end point A340 values were used to calculate the % inhibition of the GroEL/ES or HSP60/10 machinery by the compounds. […] Results presented represent the averages of IC50 values obtained from at least quadriplicate (duplicate of duplicate) replicates.

[3] = ATCC13047, OD600 at 6-8 h, read-out: Bacterial Proliferation EC50 E. cloacae
[4] = ATCC13047, log of EC50 (μM scale), with standard deviation, read-out: log(EC50) Bacterial Proliferation Assay E. cloacae (converted)
[5] = ATCC25923, OD600 at 6-8 h, read-out: Bacterial Proliferation EC50 S. aureus Sensitive
[6] = ATCC25923, log of EC50 (μM scale), with standard deviation, read-out: log(EC50) Bacterial Proliferation Assay S. aureus Sensitive (converted)
[7] = human HSP60/10-dMDH refolding assay, read-out: HSP60/10-dMDH Refolding IC50
[8] = log(IC50) ± standard deviation, human HSP60/10-dMDH refolding assay, read-out: HSP60/10-dMDH Refolding Assay log(IC50) (converted)
[9] = ATCC13047, read-out: Bacterial Proliferation EC50 E. cloacae
[10] = ATCC13047, read-out: log(EC50) Bacterial Proliferation Assay E. cloacae (converted)
[11] = ATCC25923, read-out: Bacterial Proliferation EC50 S. aureus Sensitive
[12] = ATCC25923, read-out: log(EC50) Bacterial Proliferation Assay S. aureus Sensitive (converted)
[13] = log(IC50) ± standard deviation, human HSP60/10-dMDH refolding assay

T1 sequence (P10809 27-573): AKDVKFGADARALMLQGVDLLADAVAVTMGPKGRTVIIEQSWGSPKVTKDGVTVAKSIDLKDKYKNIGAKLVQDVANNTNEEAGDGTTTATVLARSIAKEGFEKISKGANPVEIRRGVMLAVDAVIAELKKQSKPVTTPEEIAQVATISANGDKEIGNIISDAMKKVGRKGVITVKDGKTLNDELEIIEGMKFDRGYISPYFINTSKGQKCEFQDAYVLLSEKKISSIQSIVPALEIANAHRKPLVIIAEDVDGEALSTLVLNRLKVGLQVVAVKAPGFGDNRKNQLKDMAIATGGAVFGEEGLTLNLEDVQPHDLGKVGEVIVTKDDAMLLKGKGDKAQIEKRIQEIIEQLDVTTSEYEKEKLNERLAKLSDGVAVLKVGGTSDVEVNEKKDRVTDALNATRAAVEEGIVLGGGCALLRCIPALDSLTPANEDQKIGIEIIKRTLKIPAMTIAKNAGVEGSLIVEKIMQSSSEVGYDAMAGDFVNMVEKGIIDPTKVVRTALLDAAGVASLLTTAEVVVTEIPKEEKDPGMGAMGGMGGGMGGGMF

| Structure (SMILES) | EC50 [1, 3] [µM] | EC50 [1, 4] [µM] | CC50 at 48 h (in vitro) [µM] | EC50 [2, 5] [µM] | EC50 [2, 6] [µM] | IC50 (human HSP60/10; [7]) [µM] | IC50 (human HSP60/10; [8]) [µM] | EC50 [1, 9] [µM] | EC50 [1, 10] [µM] | EC50 [2, 11] [µM] | EC50 ([2]; ATCC25923, read-out: S. aureus Proliferation & Biofilm Assay EC50 Planktonic Growth) [µM] | EC50 [2, 12] [µM] | IC50 (human HSP60/10) [µM] | HSP60/10-dMDH Refolding Assay log(IC50) (human HSP60/10; [13]) |
| --- | --- | --- | --- | --- | --- | --- | --- | --- | --- | --- | --- | --- | --- | --- |
| COc1c(Br)cc(Br)cc1C(=O)Nc1ccccc1 [Compound 41, 3,5-Dibromo-2-methoxy-N-phenylbenzamide] | > 100 | > 100 | > 100 | > 100 | > 100 | > 100 | > 100 |  |  |  |  |  |  |  |
| CN[C@H](CC(C)C)C(=O)N[C@H]1C(=O)N[C@@H](CC(N)=O)C(=O)N[C@H]2C(=O)N[C@H]3C(=O)N[C@H](C(=O)N[C@H](C(=O)O)c4cc(O)cc(O)c4-c4cc3ccc4O)[C@H](O)c3ccc(c(Cl)c3)Oc3cc2cc(c3O[C@@H]2O[C@H](CO)[C@@H](O)[C@H](O)[C@H]2O[C@H]2C[C@](C)(N)[C@H](O)[C@H](C)O2)Oc2ccc(cc2Cl)[C@H]1O [Vancomycin, vancomycin, reference compound] |  |  | > 100 |  |  |  |  | > 100 | > 100 | 0.67 | 0.67 | 0.661 | > 100 | >2 |
| COc1c(Br)cc(Br)cc1C(=O)Nc1cccc(Cl)c1 [Compound 37, 3,5-Dibromo-N-(3-chlorophenyl)-2-methoxybenzamide] | > 100 | > 100 | > 100 | 46 | 45.7 | > 100 | > 100 |  |  |  |  |  |  |  |
| COc1c(Br)cccc1C(=O)Nc1cccc(Cl)c1 [Compound 38] | > 100 | > 100 | > 100 | > 100 | > 100 | > 100 | > 100 |  |  |  |  |  |  |  |
| O=C(Nc1ccccc1)c1cc(Br)cc(Br)c1 [Compound 26, 3,5-Dibromo-N-phenylbenzamide] | > 100 | > 100 | > 100 | > 100 | > 100 | > 100 | > 100 |  |  |  |  |  |  |  |
| O=C(Nc1ccc(Sc2nc3ccccc3s2)c(Cl)c1)c1cc(Br)cc(Br)c1 [Compound 17, N-(4-(Benzo[d]thiazol-2-ylthio)-3-chlorophenyl)-3,5-dibromobenzamide] | > 100 | > 100 | > 100 | > 100 | > 100 | > 100 | > 100 |  |  |  |  |  |  |  |
| O=C(Nc1ccc(Sc2nc3ccccc3s2)cc1)c1ccccc1 [Compound 22, N-(4-(Benzo[d]thiazol-2-ylthio)phenyl)benzamide] | > 100 | > 100 | > 100 | > 100 | > 100 | > 100 | > 100 |  |  |  |  |  |  |  |
| O=C(Nc1ccccc1)c1cccc(Br)c1 [Compound 27, 3-Bromo-N-phenylbenzamide] | > 100 | > 100 | > 100 | > 100 | > 100 | > 100 | > 100 |  |  |  |  |  |  |  |
| O=C(Nc1cccc(Cl)c1)c1cc(Br)cc(Br)c1O [Compound 9, 3,5-Dibromo-N-(3-chlorophenyl)-2-hydroxybenzamide] |  |  | 9.12 |  |  | 29 | 28.8 | 78 | 77.6 | 0.66 |  | 0.661 |  |  |
| COc1ccc(Br)cc1C(=O)Nc1ccc(Sc2nc3ccccc3s2)cc1 [Compound 35, N-(4-(Benzo[d]thiazol-2-ylthio)phenyl)-5-bromo-2-methoxybenzamide] | > 100 | > 100 | > 100 | > 100 | > 100 | > 100 | > 100 |  |  |  |  |  |  |  |
| COc1ccccc1C(=O)Nc1ccccc1 [Compound 44, 2-Methoxy-N-phenylbenzamide] | > 100 | > 100 | > 100 | > 100 | > 100 | > 100 | > 100 |  |  |  |  |  |  |  |
| O=C(Nc1ccccc1)c1ccccc1O [Compound 16, 2-Hydroxy-N-phenylbenzamide] |  |  | 67.6 |  |  |  |  | > 100 | > 100 | 28 |  | 27.5 | > 100 | >2 |
| COc1ccc(Br)cc1C(=O)Nc1ccc(Sc2nc3ccccc3s2)c(Cl)c1 [Compound 31, N-(4-(Benzo[d]thiazol-2-ylthio)-3-chlorophenyl)-5-bromo-2-methoxybenzamide] | > 100 | > 100 | > 100 | > 100 | > 100 | > 100 | > 100 |  |  |  |  |  |  |  |
| COc1ccccc1C(=O)Nc1ccc(Sc2nc3ccccc3s2)c(Cl)c1 [Compound 32, N-(4-(Benzo[d]thiazol-2-ylthio)-3-chlorophenyl)-2-methoxybenzamide] | > 100 | > 100 | > 100 | > 100 | > 100 | > 100 | > 100 |  |  |  |  |  |  |  |
